Entries after “also recorded” stand apart in the source; their conditions may differ. Like-named read-outs stand apart in the source and are kept apart here.
What was measured:
[1] = biological target: Neuraminidase from Clostridium perfringens (C. welchii) (EC 3.2.1.18); type: biochemical; details: for IC50: pH 5.0, 37 °C, read-out: IC50, bacterial neuraminidase
[2] = tested on: Neuraminidase from Clostridium perfringens (bacterial neuraminidase); type: binding
[3] = biological target: Neuraminidase from Clostridium perfringens (bacterial neuraminidase); type: biochemical; details: for Ki: read-out: Ki (inhibition constant); for Kik/Kiv: Yang's method
[4] = concentration that caused 50% enzyme activity loss, three repeats
[5] = Lineweaver–Burk and Dixon plots

| Compound | IC50 [1, 4] | KA (binding constant) ([2]; fluorescence quenching, pH 5.0) | KSV (Stern–Volmer constant) ([2]; fluorescence quenching, pH 5.0) | Ki ([3]; Dixon plots) | Kinetic Mode [3, 5] | also measured |
| --- | --- | --- | --- | --- | --- | --- |
| O=C1c2c(O)cc(O)cc2O[C@H](c2ccc(O)cc2)[C@H]1O [Dihydrokaempferol, dihydrokaempferol, reference compound] | 500.4 ± 3.8 µM | 299800 L/mol | 24790 L/mol | – | – | fluorescence quenching (FQ) effect [2]: insignificant |
| CC(C)=CCc1c(O)cc(O)c2c1OC(c1ccc(O)cc1)C(O)C2=O (stereo not shown) [Compound 2, 8-(γ,γ-dimethylallyl)-5,7,4′-trihydroxydihydroflavonol] | 0.68 ± 0.03 µM | 792300 L/mol | 236360 L/mol | 0.73 µM | Noncompetitive | times more potent in comparison with dihydrokaempferol ([1]; ratio of IC50 values): 700 times |
| O=c1cc(-c2ccc(O)cc2)oc2cc(O)cc(O)c12 [Apigenin, apigenin, reference compound] | 108 ± 1.8 µM | 514200 L/mol | – | – | – | – |
| icariside II [Compound 4] | – | – | – | – | – | IC50 [1]: 20 ± 0.5 µM; KA (binding constant) ([2]; pH 5): 733500 L/mol; KSV (Stern–Volmer constant) ([2]; pH 5): 95690 L/mol; Kinetic Mode [3]: Noncompetitive (21.1 ± 0.8); Ki [3]: 21.1 µM |
| COc1ccc(-c2oc3c(c(O)cc4oc(C(C)(C)O)cc43)c(=O)c2O[C@@H]2O[C@@H](C)[C@H](O)[C@@H](O)[C@H]2O)cc1 [Compound 8, 5-hydroxy-8-(2-hydroxypropan-2-yl)-2-(4-methoxyphenyl)-3-(((2S,3R,4R,5R,6S)-3,4,5-trihydroxy-6-methyl-tetrahydro-2H-pyran-2-yl)oxy)-4H-furo[2,3-h]chromen-4-one] | 16.7 ± 0.9 µM | 741600 L/mol | 111200 L/mol | 16.4 µM | Noncompetitive | – |
| O=c1c(O)c(-c2ccc(O)c(O)c2)oc2cc(O)cc(O)c12 [Quercetin, reference compound] | 20.2 ± 0.8 µM | – | – | – | – | – |
| CC(C)=CCc1cc(-c2cc(=O)c3c(O)cc(O)c(CC=C(C)C)c3o2)ccc1O [Compound 3, 5,7,4′-trihydroxy-8,3′-diprenyl flavone] | 12.6 ± 0.2 µM | 760400 L/mol | 134420 L/mol | 12.2 µM | Noncompetitive | – |
| COc1ccc(-c2oc3c(CC=C(C)C)c(O)cc(O)c3c(=O)c2O[C@@H]2O[C@@H](C)[C@H](O)[C@@H](O)[C@H]2O[C@@H]2OC[C@@H](O)[C@H](O)[C@H]2O)cc1 [Compound 6, sagittatoside B] | 106 ± 3.2 µM | 505700 L/mol | 56080 L/mol | 103 µM | Noncompetitive | – |
| COc1ccc(-c2oc3c(c(O)cc4oc(C(C)(C)OC)cc43)c(=O)c2OC2OC(C)C(O)C(O)C2O)cc1 [Compound 7, 5-hydroxy-2-(4-methoxyphenyl)-8-(2-methoxypropan-2-yl)-3-(((2S,3R,4R,5R,6S)-3,4,5-trihydroxy-6-methyltetra-hydro-2H-pyran-2-yl)oxy)-4H-furo[2-3-h]chromen-4-one] | 2.9 ± 0.7 µM | 785100 L/mol | 216560 L/mol | 2.73 µM | Noncompetitive | times more effective compared with compound 8 ([1]; methoxy group (7) versus hydroxyl group (8)): 5 times |
| COc1ccc(-c2oc3c(CC=C(C)C)c(O[C@@H]4O[C@H](CO)[C@@H](O)[C@H](O)[C@H]4O)cc(O)c3c(=O)c2O[C@@H]2O[C@@H](C)[C@H](O)[C@@H](O)[C@H]2O)cc1 [Compound 5, icariin] | 57.8 ± 1.1 µM | 584400 L/mol | 60400 L/mol | 36.8 µM | mixed type inhibitor; also recorded: mixed-type behavior; also recorded: Mixed type I | Kik/Kiv ([3]; [I] 35.0 µM): 3.6688; Kik/Kiv ([3]; [I] 70.0 µM): 2.3384; Kik/Kiv ([3]; [I] 140.0 µM): 2.0207 |
| CC(C)=CCc1cc(-c2cc(=O)c3c(O)cc(O)c(CC=C(C)C)c3o2)cc(O)c1O [Compound 1, epimedokoreanin B] | 0.17 ± 0.02 µM | 966600 L/mol | 411040 L/mol | 0.15 µM | Noncompetitive | times more effective than luteolin (mother skeleton) ([1]; ratio of IC50 values): 500 times; Kinetic Mode ([3]; Lineweaver–Burk and Dixon plots, listed as compound 1): noncompetitive inhibition; also recorded: noncompetitive behavior; Kik/Kiv ([3]; [I] 0.12 µM): 16.0415; Kik/Kiv ([3]; [I] 0.24 µM): 6.6846; Kik/Kiv ([3]; [I] 0.48 µM): 7.7610; reversibility of inhibition ([3]; initial velocity versus enzyme concentration plots): reversible inhibitor |
| O=c1cc(-c2ccc(O)c(O)c2)oc2cc(O)cc(O)c12 [Luteolin, luteolin, reference compound] | 85.6 ± 2.1 µM | 557800 L/mol | 56140 L/mol | – | – | – |

Source: PMC6359343 (Molecules, 2019)
